The source of these data is ChEMBL document CHEMBL1122598, “A cannabinoid derived prototypical analgesic” (1984).

The term inhibition in vivo denotes the drop in the measured response relative to a control, in per cent.

Each structure is given as a SMILES string.

What all share (assay type): functional
The species entered for assay [1] is Mus musculus. The assay is described as follows: Analgesic activity was determined by mouse hot plate (HP), 1 hour postdose.
For assay [2], the species on record is Mus musculus. As to the kind of experiment: Analgesic activity was determined by mouse phenylbenzoquinone (PBQ) induced writhing, 1 hour postdose. Background: In writhing tests, fewer writhes than in controls are read as antinociception.
The species entered for assay [3] is Mus musculus. As to the kind of experiment: Analgesic activity was determined by mouse tail flick (TF), 1 hour postdose.
The species named for assay [4] is Rattus norvegicus. The assay is described as follows: Analgesic activity was determined by rat flinch jump (FJ), 2 hour postdose.
Assay [5] is filed under the species Rattus norvegicus. As to the kind of experiment: Analgesic activity was determined by rat tail clamp assay(RTC), 2 hour postdose.
The subject of assay [6] is Mus musculus. The assay is described as follows: Analgesic activity was determined by mouse phenylbenzoquinone writhing test(PBQ) at a dose 56 mg/kg subcutaneous administration. Particulars: sc.
Assay [7] has as its system Mus musculus. As to the kind of experiment: Analgesic activity was determined by Mouse phenylbenzoquinone writhing test(PBQ) at a dose of 10 mg/kg subcutaneous administration. Particulars: sc.
Assay [8] has as its system Mus musculus. As to the kind of experiment: Analgesic activity was determined by Mouse phenylbenzoquinone writhing test(PBQ) at a dose of 100 mg/kg subcutaneous administration. Particulars: sc.
For assay [9], the system named is Mus musculus. The assay is described as follows: Analgesic activity was determined by Mouse phenylbenzoquinone writhing test(PBQ) at a dose of 32 mg/kg subcutaneous administration. The settings on record: sc.
Assay [10] concerns Mus musculus. As to the kind of experiment: Analgesic activity was determined by Mouse phenylbenzoquinone writhing test(PBQ) at a dose of 56 mg/kg subcutaneous administration. Particulars: sc.

In the case of `CCCCCCC(C)(C)c1ccc([C@H]2CCC[C@H](O)C2)c(O)c1`, the MPE50 in [1] is above 56 mg/kg; in assay [2] it was 3.8 mg/kg; in assay [3], 55.7 mg/kg; in [4], 17.8 mg/kg; in assay [5], 12.3 mg/kg.

For the compound `CCCCCc1cc(O)c2c(c1)OC(C)(C)[C@@H]1CCC(C)=C[C@@H]21` [DRONABINOL], the MPE50 in assay [1] was above 178 mg/kg; in assay [2], 5.9 mg/kg; in assay [3], 55 mg/kg; in assay [4], 83.1 mg/kg; in assay [5], 29.1 mg/kg.

Consider `CCCCCCC(C)(C)c1ccc([C@H]2CCCC(=O)C2)c(O)c1`, for which the MPE50 was above 32 mg/kg in assay [1]; 4.5 mg/kg in [2]; 15.3 mg/kg in assay [3]; 11.5 mg/kg in assay [4]; 26.1 mg/kg in assay [5].

In turn, `CCCCCCC(C)(C)c1ccc(C(C)CC(C)=O)c(O)c1` (stereo unspecified) returned an inhibition in vivo at 56 mg/kg in assay [6] of 0%.

For the compound `CN1CC[C@]23c4c5ccc(O)c4O[C@H]2[C@@H](O)C=C[C@H]3[C@H]1C5` [MORPHINE], the MPE50 was 4.2 mg/kg in assay [1]; 1.8 mg/kg in assay [2]; 5.7 mg/kg in assay [3]; 10.3 mg/kg in assay [4]; 4.8 mg/kg in [5].

`CCCCCCC(C)(C)c1ccc([C@H]2CCC[C@@H](O)C2)c(O)c1`: the MPE50 in assay [1] worked out at 8.1 mg/kg; in assay [2], 1 mg/kg; in [3], 4.4 mg/kg; in assay [4] it was 4.9 mg/kg; in assay [5], 4.7 mg/kg.

With `CCCCCc1cc(O)c2c(c1)OC(C)(C)[C@@H]1CC[C@@H](O)C[C@@H]21`, the MPE50 came out at 34.4 mg/kg in assay [1]; 0.63 mg/kg in [2]; 9.1 mg/kg in assay [3]; 36.4 mg/kg in [4]; 7 mg/kg in assay [5].

Compound `CCCCCCC(C)(C)c1ccc(C(C)CC(C)O)c(O)c1` (stereo unspecified) returned an inhibition in vivo at 10 mg/kg in assay [7] of 27%. The compound further registered an inhibition in vivo at 100 mg/kg in assay [8] of 53%. The inhibition in vivo at 32 mg/kg in assay [9] was 52%. Moreover, the inhibition in vivo at 56 mg/kg stood at 50% in [10] and 55% in assay [6].
